# Measured values published in patent publication US11267824B2, “Inhibitors of indoleamine 2,3-dioxygenase and/or tryptophan 2,3-dioxygenase” (IDORSIA PHARMACEUTICALS LTD, priority 2017, dated 2022).
# Like-named read-outs stand apart in the source and are kept apart here.
# Assays:
# [1] = molecular target: Recombinant human TDO comprising amino acids 19-407 (Homo sapiens (Human), UniProt P48775); assay: TDO2 enzymatic assay (TDO inhibitory activity); assay type: biochemical; details: 15 nM enzyme, 200 μM L-tryptophan, pH7, 30 min pre-incubation, NFK quantified by LCMS, mean values if measured multiple times
# Summary of the method: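 His-tagged enzyme (15 nM, E. coli-expressed) in pH 7 phosphate buffer with ascorbate, catalase, BSA, Tween 20, 0.6% DMSO; 30 min RT pre-incubation with compound (10 μM–0.5 nM), then 200 μM L-tryptophan for 30 min RT. N′-formylkynurenine quantified by LCMS against deuterated tryptophan; IC50 by four-parameter fit, duplicates.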
# [2] = molecular target: Recombinant full-length human IDO1 (Homo sapiens (Human), UniProt P14902); assay: IDO1 enzymatic assay (IDO inhibitory activity); assay type: biochemical; details: 2 nM enzyme, 5 μM L-tryptophan, pH6.5, 30 min pre-incubation, NFK quantified by LCMS; mean values if measured multiple times; read-out: hIDO activity (IC50 in nM)
# Summary of the method: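 N-His-tagged enzyme from E. coli at 2 nM in 37.5 mM phosphate pH6.5 with ascorbate, methylene blue, catalase; compounds 10 μM–0.5 nM, 0.6% DMSO, pre-incubated 30 min RT, then 5 μM L-tryptophan for 30 min RT. NFK quantified by LCMS against d5-tryptophan; IC50 from duplicate four-parameter fit, means where repeated.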
# [3] = read-out: hTDO activity (IC50 in nM)
# Sequence of Recombinant human TDO comprising amino acids 19-407 (P48775 19-406 limits assumed): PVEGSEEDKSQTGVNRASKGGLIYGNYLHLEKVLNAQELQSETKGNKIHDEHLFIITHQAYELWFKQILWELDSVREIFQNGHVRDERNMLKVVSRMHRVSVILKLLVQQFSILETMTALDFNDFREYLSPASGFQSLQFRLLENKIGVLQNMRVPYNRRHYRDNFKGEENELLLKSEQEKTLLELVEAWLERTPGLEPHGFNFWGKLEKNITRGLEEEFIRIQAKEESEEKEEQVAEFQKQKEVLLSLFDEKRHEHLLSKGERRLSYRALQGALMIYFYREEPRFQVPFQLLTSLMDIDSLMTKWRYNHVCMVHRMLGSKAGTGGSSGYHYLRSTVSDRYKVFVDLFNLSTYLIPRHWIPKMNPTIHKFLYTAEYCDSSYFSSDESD
# Sequence of Recombinant full-length human IDO1 (P14902 whole entry): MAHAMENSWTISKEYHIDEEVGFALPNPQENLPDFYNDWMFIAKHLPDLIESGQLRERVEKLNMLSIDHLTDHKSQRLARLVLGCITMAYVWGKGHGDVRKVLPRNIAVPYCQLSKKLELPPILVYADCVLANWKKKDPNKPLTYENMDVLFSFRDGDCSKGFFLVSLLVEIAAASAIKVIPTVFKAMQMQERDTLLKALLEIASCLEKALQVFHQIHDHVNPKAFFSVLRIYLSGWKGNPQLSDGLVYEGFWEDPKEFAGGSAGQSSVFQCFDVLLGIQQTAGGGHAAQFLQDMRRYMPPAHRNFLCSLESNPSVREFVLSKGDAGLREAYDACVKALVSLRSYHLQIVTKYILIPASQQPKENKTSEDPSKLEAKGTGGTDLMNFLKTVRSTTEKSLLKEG
SMILES,"IC50 [1, 3] [nM]",IC50 [2] [nM],IC50 ([1]; hTDO activity (IC50 in nM)) [nM]
"CCc1sc2cncn2c1C(O)CC1CCC(C)(C)CC1 (racemic) [Example 178, rac-2-(4,4-Dimethyl-cyclohexyl)-1-(2-ethyl-imidazo[5,1-b]thiazol-3-yl)-ethanol]",1290,118,
"CCc1sc2cncn2c1C(O)CC1CCCC1 (racemic) [Example 179, rac-2-Cyclopentyl-1-(2-ethyl-imidazo[5,1-b]thiazol-3-yl)-ethanol]",203,28.9,
"CCc1sc2cncn2c1C(O)C1CC(C)(C)C1 (racemic) [Example 180, rac-(3,3-Dimethyl-cyclobutyl)-(2-ethyl-imidazo[5,1-b]thiazol-3-yl)-methanol]",72.9,6.65,
"OC(c1c(-c2cccc(F)c2)sc2cncn12)C1CCCCC1 (racemic) [Example 181, rac-Cyclohexyl-[2-(3-fluoro-phenyl)-imidazo[5,1-b]thiazol-3-yl]-methanol]",885,965,
"OC(c1c(-c2ccccc2F)sc2cncn12)C1CCCCC1 (racemic) [Example 182, rac-Cyclohexyl-[2-(2-fluoro-phenyl)-imidazo[5,1-b]thiazol-3-yl]-methanol]",239,441,
"Cc1sc2cncn2c1C(O)CC1CCCC1 (racemic) [Example 183, rac-2-Cyclopentyl-1-(2-methyl-imidazo[5,1-b]thiazol-3-yl)-ethanol]",573,190,
"OC(c1c(C2(F)CC2)sc2cncn12)C1CCCCC1 (racemic) [Example 184, rac-Cyclohexyl-[2-(1-fluoro-cyclopropyl)-imidazo[5,1-b]thiazol-3-yl]-methanol]",1760,115,
"CC(C)n1cc(C(O)c2c(C3CC3)sc3cncn23)cn1 (racemic) [Example 188, rac-(2-Cyclopropyl-imidazo[5,1-b]thiazol-3-yl)-(1-isopropyl-1H-pyrazol-4-yl)-methanol]",> 10200,111,
"OC(c1cnn(C2CCCC2)c1)c1c(C2CC2)sc2cncn12 (racemic) [Example 189, rac-(1-Cyclopentyl-1H-pyrazol-4-yl)-(2-cyclopropyl-imidazo[5,1-b]thiazol-3-yl)-methanol]",> 10200,112,
"OC(c1c(C2CC2)sc2cncn12)C12CCC(c3ccccc3)(C1)C2 (racemic) [Example 190, rac-(2-Cyclopropyl-imidazo[5,1-b]thiazol-3-yl)-(4-phenyl-bicyclo[2.1.1]hex-1-yl)-methanol]",891,61.2,
"OC(c1c(C2CC2)sc2cncn12)C12CC(c3ccccc3)(C1)C2 (racemic) [Example 191, rac-(2-Cycclopropyl-imidazo[5,1-b]thiazol-3-yl)-(3-phenyl-bicyclo[1.1.1]pent-1-yl)-methanol]",1270,28.6,
"Cn1cc(C(O)c2c(C3CC3)sc3cncn23)nn1 (racemic) [Example 192, rac-(2-Cyclopropyl-imidazo[5,1-b]thiazol-3-yl)-(1-methyl-1H-[1,2,3]triazol-4-yl)-methanol]",> 10200,590,
"CCn1cc(C(O)c2c(C3CC3)sc3cncn23)nn1 (racemic) [Example 193, rac-(2-Cyclopropyl-imidazo[5,1-b]thiazol-3-yl)-(1-ethyl-1H-[1,2,3]triazol-4-yl)-methanol]",> 10200,498,
"CC(C)n1cc(C(O)c2c(C3CC3)sc3cncn23)nn1 (racemic) [Example 194, rac-(2-Cyclopropyl-imidazo[5,1-b]thiazol-3-yl)-(1-isopropyl-1H-[1,2,3]triazol-4-yl)-methanol]",> 10200,304,
"OC(c1cn(C2CCCC2)nn1)c1c(C2CC2)sc2cncn12 (racemic) [Example 195, rac-(1-Cyclopentyl-1H-[1,2,3]triazol-4-yl)-(2-cyclopropyl-imidazo[5,1-b]thiazol-3-yl)-methanol]",> 10200,96.1,
"OC(c1cn(C2CCC2)nn1)c1c(C2CC2)sc2cncn12 (racemic) [Example 196, rac-(1-Cyclobutyl-1H-[1,2,3]triazol-4-yl)-(2-cyclopropyl-imidazo[5,1-b]thiazol-3-yl)-methanol]",> 10200,183,
"OC(c1cn(C2CCCCC2)nn1)c1c(C2CC2)sc2cncn12 (racemic) [Example 197, rac-(1-Cyclohexyl-1H-[1,2,3]triazol-4-yl)-(2-cyclopropyl-imidazo[5,1-b]thiazol-3-yl)-methanol]",> 10200,287,
"CCc1sc2cncn2c1C(O)c1cn(C2CCCC2)nn1 (racemic) [Example 198, rac-(1-Cyclopentyl-1H-[1,2,3]triazol-4-yl)-(2-ethyl-imidazo[5,1-b]thiazol-3-yl)-methanol]",> 10200,116,

SMILES,"IC50 [1, 3] [nM]",IC50 [2] [nM],IC50 ([1]; hTDO activity (IC50 in nM)) [nM]
"Cc1sc2cncn2c1C(O)c1cn(C2CCCC2)nn1 (racemic) [Example 199, rac-(1-Cyclopentyl-1H-[1,2,3]triazol-4-yl)-(2-methyl-imidazo[5,1-b]thiazol-3-yl)-methanol]",> 10200,835,
"OC(c1c[nH]nn1)c1c(C2CC2)sc2cncn12 (racemic) [Example 200, rac-(2-Cyclopropyl-imidazo[5,1-b]thiazol-3-yl)-(1H-[1,2,3]triazol-4-yl)-methanol]",> 10200,1950,
"OC(c1c(C2CC2)sc2cncn12)[C@H]1C[C@@H]2CC[C@H]1C2 (relative stereo) [Example 20, rac-(1R*,2R*,4S*)-Bicyclo[2.2.1]hept-2-yl-(2-cyclopropyl-imidazo[5,1-b]thiazol-3-yl)-methanol]",,16.1,190
"OC(c1c([C@@H]2C[C@@H]2F)sc2cncn12)C1CCCCC1 (relative stereo) [Example 186, Cyclohexyl-[2-(cis-2-fluoro-cyclopropyl)-imidazo[5,1-b]thiazol-3-yl]-methanol]",491,21.8,
"OC(c1c([C@@H]2C[C@H]2F)sc2cncn12)C1CCCCC1 (relative stereo) [Example 187, Cyclohexyl-[2-(trans-2-fluoro-cyclopropyl)-imidazo[5,1-b]thiazol-3-yl]-methanol]",2260,18.5,
"Cc1sc2cncn2c1C(O)[C@H]1C[C@@H]1c1ccccc1 (single isomer, unassigned) [Example 167, rac-(S*)-(2-Methyl-imidazo[5,1-b]thiazol-3-yl)-((1S*,2S*)-2-phenyl-cyclopropyl)-methanol]",> 10200,338,
"Cc1sc2cncn2c1C(O)[C@H]1C[C@@H]1c1ccccc1 (single isomer, unassigned) [Example 168, rac-(R*)-(2-Methyl-imidazo[5,1-b]thiazol-3-yl)-((1S*,2S*)-2-phenyl-cyclopropyl)-methanol]",2710,123,
"O[C@H](c1c(C2CC2)sc2cncn12)C1CCCCC1 [Example 1a, (S)-Cyclohexyl(2-cyclopropylimidazo[5,1-b]thiazol-3-yl)methanol]",115,7.5,
"O[C@@H](CC1CCCCC1)c1c(C2CC2)sc2cncn12 [Example 2a, (S)-2-Cyclohexyl-1-(2-cyclopropylimidazo[5,1-b]thiazol-3-yl)ethan-1-ol]",268,10.3,
"CC(C)c1sc2cncn2c1[C@@H](O)C1CCCCC1 [Example 3a, (S)-Cyclohexyl-(2-isopropyl-imidazo[5,1-b]thiazol-3-yl)-methanol]",603,11.7,
"CC(C)c1sc2cncn2c1[C@@H](O)CC1CCCCC1 [Example 4a, (S)-2-Cyclohexyl-1-(2-isopropyl-imidazo[5,1-b]thiazol-3-yl)-ethanol]",386,15.5,
"Cc1sc2cncn2c1[C@@H](O)CC1CCCCC1 [Example 5a, (S)-2-Cyclohexyl-1-(2-methyl-imidazo[5,1-b]thiazol-3-yl)-ethanol]",375,16.5,
"Cc1sc2cncn2c1[C@@H](O)C1CCCCC1 [Example 6a, (S)-Cyclohexyl-(2-methyl-imidazo[5,1-b]thiazol-3-yl)-methanol]",60.4,37.3,
"O[C@H](c1c(C2CCC2)sc2cncn12)C1CCCCC1 [Example 7a, (S)-(2-Cyclobutylimidazo[5,1-b]thiazol-3-yl)(cyclohexyl)methanol]",138,39.7,
"O[C@@H](CC1CCCCC1)c1c(C2CCC2)sc2cncn12 [Example 8a, (S)-1-(2-Cyclobutylimidazo[5,1-b]thiazol-3-yl)-2-cyclohexylethan-1-ol]",129,72.3,
"O[C@H](c1c(C2CCCC2)sc2cncn12)C1CCCCC1 [Example 9a, (S)-Cyclohexyl(2-cyclopentylimidazo[5,1-b]thiazol-3-yl)methanol]",131,131,
"O[C@@H](CC1CCCCC1)c1c(C2CCCC2)sc2cncn12 [Example 10a, (S)-2-Cyclohexyl-1-(2-cyclopentylimidazo[5,1-b]thiazol-3-yl)ethan-1-ol]",164,190,
"O[C@H](c1c(Cl)sc2cncn12)C1CCCCC1 [Example 13a, (S)-(2-Chloroimidazo[5,1-b]thiazol-3-yl)(cyclohexyl)methanol]",162,93,
